From patent US5696143A, “Benz [G] indazolyl derivatives for the treatment of inflammation” (priority 1994, dated 1997) come the findings set out here.

The subject of test [1] is rat paw edema (carrageenan). Briefly: Rat Carrageenan Foot Pad Edema Test. It counts as in vivo, Male Sprague-Dawley rats. The settings on record: @ 30 mg/kg body weight, oral, 1 h before carrageenan; foot volume 3 h after injection; % decrease from control paw volume. As for the experimental part: Rat Carrageenan Foot Pad Edema Test
The carrageenan foot edema test was performed with materials, reagents and procedures essentially as described by Winter, et al., (Proc. Soc. Exp. Biol. Med., 111, 544 (1962)). Male Sprague-Dawley rats were selected in each group so that the average body weight was as close as possible. Rats were fasted with free access to water for over sixteen hours prior to the test. The rats were dosed orally (1 mL) with compounds suspended in vehicle containing 0.5% methylcellulose and 0.025% surfactant, or with vehicle alone. One hour later a subplantar injection of 0.1 mL of 1% solution of carrageenan/sterile 0.9% saline was administered and the volume of the injected foot was measured with a displacement plethysmometer connected to a pressure transducer with a digital indicator. Three hours after the injection of the carrageenan, the volume of the foot was again measured. The average foot swelling in a group of drug-treated animals was compared with that of a group of placebo-treated animals and the percentage inhibition of edema was determined (Otterhess and Bliven, Laboratory Models for Testing NSAIDs, in Non-steroidal Anti-Inflammatory Drugs, (J. Lombardino, ed. 1985)).

The target in the next test is T1, Human COX II (Homo sapiens, UniProt P35354).
T1 construct: A 2.0 kb fragment containing the coding region of either human or murine COX-I or human or murine COX-II; made in house; host or cells: SF9 insect cells (recombinant baculovirus, transfer vector pVL1393)
T1 sequence (P35354 18-604): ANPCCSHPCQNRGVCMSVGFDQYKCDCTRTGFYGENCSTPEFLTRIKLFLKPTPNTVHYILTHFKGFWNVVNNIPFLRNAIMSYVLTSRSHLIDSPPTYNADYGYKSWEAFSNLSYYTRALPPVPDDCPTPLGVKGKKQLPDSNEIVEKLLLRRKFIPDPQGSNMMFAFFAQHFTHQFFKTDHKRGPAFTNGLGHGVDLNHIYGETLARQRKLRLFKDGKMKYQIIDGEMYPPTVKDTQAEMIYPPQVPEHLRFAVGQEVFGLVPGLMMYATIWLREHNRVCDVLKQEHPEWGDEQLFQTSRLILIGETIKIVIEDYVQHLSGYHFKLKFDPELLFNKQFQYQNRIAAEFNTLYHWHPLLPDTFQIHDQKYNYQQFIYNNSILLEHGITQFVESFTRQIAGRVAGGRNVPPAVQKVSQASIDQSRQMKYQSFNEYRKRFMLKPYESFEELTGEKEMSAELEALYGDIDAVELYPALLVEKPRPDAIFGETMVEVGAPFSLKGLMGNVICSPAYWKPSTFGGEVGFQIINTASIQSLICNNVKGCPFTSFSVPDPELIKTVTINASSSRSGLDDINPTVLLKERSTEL
As to the kind of experiment: COX II activity in vitro (PGE2 formed, ELISA; recombinant enzyme, baculovirus/SF9 insect cell membranes). The settings on record: arachidonic acid 10 μM; 10-20 min pre-incubation; pH 8.0; read-out: Human COX II ID50. In kind it is biochemical. As for the experimental part:
(§1) Evaluation of COX I and COX II activity in vitro
(§2) The COX II inhibition activity of the compounds of this invention illustrated in the Examples was determined by the following methods.
(§3) a. Preparation of recombinant CQX baculoviruses
(§4) A 2.0 kb fragment containing the coding region of either human or murine COX-I or human or murine COX-II was cloned into a BamH1 site of the baculovirus transfer vector pVL1393 (Invitrogen) to generate the baculovirus transfer vectors for COX-I and COX-II in a manner similar to the method of D. R. O'Reilly et al (Baculovirus Expression Vectors: A Laboratory Manual (1992)). Recombinant baculoviruses were isolated by transfecting 4 μg of baculovirus transfer vector DNA into SF9 insect cells ([…]) along with 200 ng of linearized baculovirus plasmid DNA by the calcium phosphate method. See M. D. Summers and G. E. Smith, A Manual of Methods for Baculovirus Vectors and Insect Cell Culture Procedures, Texas Agric. Exp. Station Bull. 1555 (1987). Recombinant viruses were purified by three rounds of plaque purification and high titer (10E7-10E8 pfu/ml) stocks of virus were prepared. For large scale production, SF9 insect cells were infected in 10 liter fermentors (0.5×10^6 /ml) with the recombinant baculovirus stock such that the multiplicity of infection was 0.1. After 72 hours the cells were centrifuged and the cell pellet homogenized in Tris/Sucrose (50 mM: 25%, pH 8.0) containing 1% 3-[(3-cholamidopropyl)dimethylammonio]-1-propanesulfonate (CHAPS). The homogenate was centrifuged at 10,000×G for 30 minutes, and the resultant supernatant was stored at -80° C. before being assayed for COX activity.
(§5) b. Assay for COX I and COX II activity:
(§6) COX activity was assayed as PGE2 formed/μg protein/time using an ELISA to detect the prostaglandin released. CHAPS-solubilized insect cell membranes containing the appropriate COX enzyme were incubated in a potassium phosphate buffer (50 mM, pH 8.0) containing epinephrine, phenol, and heme with the addition of arachidonic acid (10 μM). Compounds were pre-incubated with the enzyme for 10-20 minutes prior to the addition of arachidonic acid. Any reaction between the arachidonic acid and the enzyme was stopped after ten minutes at 37° C./room temperature by transferring 40 μl of reaction mix into 160 μl ELISA buffer and 25 μM indomethacin. The PGE2 formed was measured by standard ELISA technology (Cayman Chemical).

Another test deals with T2, Human COX I (Homo sapiens, UniProt P23219).
T2 construct: A 2.0 kb fragment containing the coding region of either human or murine COX-I or human or murine COX-II; made in house; host or cells: SF9 insect cells (recombinant baculovirus, transfer vector pVL1393)
T2 sequence (P23219 24-599): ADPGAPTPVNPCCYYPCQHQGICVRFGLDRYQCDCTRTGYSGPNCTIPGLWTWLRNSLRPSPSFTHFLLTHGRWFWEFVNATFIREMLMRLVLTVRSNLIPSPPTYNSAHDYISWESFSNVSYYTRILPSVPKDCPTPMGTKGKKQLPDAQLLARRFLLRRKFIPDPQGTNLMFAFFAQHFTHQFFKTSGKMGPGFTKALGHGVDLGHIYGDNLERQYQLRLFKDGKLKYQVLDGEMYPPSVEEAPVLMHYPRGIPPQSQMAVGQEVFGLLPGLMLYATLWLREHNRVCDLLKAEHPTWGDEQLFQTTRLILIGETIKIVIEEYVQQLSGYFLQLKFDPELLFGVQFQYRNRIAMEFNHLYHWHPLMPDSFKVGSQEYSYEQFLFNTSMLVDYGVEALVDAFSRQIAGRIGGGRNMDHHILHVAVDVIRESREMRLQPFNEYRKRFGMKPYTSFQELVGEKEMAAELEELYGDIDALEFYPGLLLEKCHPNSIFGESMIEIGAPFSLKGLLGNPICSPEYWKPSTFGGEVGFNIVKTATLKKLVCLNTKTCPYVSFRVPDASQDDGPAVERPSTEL
As to the kind of experiment: COX I activity in vitro (PGE2 formed, ELISA; recombinant enzyme, baculovirus/SF9 insect cell membranes). In kind it is biochemical. The settings on record: arachidonic acid 10 μM; 10-20 min pre-incubation; pH 8.0; read-out: Human COX I ID50. As for the experimental part:
as §1, §2, §3, §4, §5, §6

Take `COc1ccc2c(ccc3c(C(F)F)nn(-c4ccc(S(N)(=O)=O)cc4)c32)c1Cl` [Example 1, 4-[6-Chloro-3-(difluoromethyl)-7-methoxy-1H-benz[g]indazol-1-yl]benzenesulfonamide]: the “% Inhibition (rat paw edema)” value in test [1] is 29%. The IC50 on Human COX II is 1 µM; at Human COX I, greater than 100 µM.
Consider `COc1ccc2c(ccc3c(C(F)(F)F)nn(-c4ccc(S(N)(=O)=O)cc4)c32)c1` [Example 3, 4-[7-Methoxy-3-(trifluoromethyl)-1H-benz[g]indazol-1-yl]benzenesulfonamide], for which the IC50 at Human COX II is less than 0.1 µM; at Human COX I it was greater than 100 µM.
The matching figures for `NS(=O)(=O)c1ccc(-n2nc(C(F)(F)F)c3ccc4ccccc4c32)cc1` [Example 5, 4-[3-(Trifluoromethyl)-1H-benz[g]indazol-1-yl]benzenesulfonamide]: greater than 100 µM and greater than 100 µM.
With `COc1ccc2c(ccc3c(C(F)F)nn(-c4ccc(S(N)(=O)=O)cc4)c32)c1` [Example 2, 4-[3-(difluoromethyl)-7-methoxy-1H-benz[g]indazol-1-yl]benzenesulfonamide], the “% Inhibition (rat paw edema)” value in test [1] is 24%. In addition, the IC50 at Human COX II is less than 0.1 µM; at Human COX I, 0.8 µM.
In the case of `COc1ccc2c(ccc3cnn(-c4ccc(S(N)(=O)=O)cc4)c32)c1` [Example 4, 4-[7-Methoxy-1H-benz[g]indazol-1-yl]benzenesulfonamide], the IC50 on Human COX II and on Human COX I was greater than 100 µM in each case.
